Here are results for 14 compounds from patent publication US7759351B2, “Oxazolidinone compounds, and compositions and methods related thereto” (Ferrer Internacional, S.A., priority 2005, dated 2010).

Values after ≈ are worked out from the molar mass of the structure shown. Like-named read-outs stand apart in the source and are kept apart here.

In one assay the test system is Staphylococcus. The assay is described as follows: Selective activity: geometric mean MIC in Staphylococcus. As to conditions: for MIC / Geometric Mean MIC Staphylococcus: geometric mean over Staphylococcus strains; for Selectivity Enterococcus/Staphylococcus: ratio of geometric mean MIC Enterococcus to geometric mean MIC Staphylococcus. The class given is cell-based.

In another assay the test system is Enterococcus. In words: Selective activity: geometric mean MIC in Enterococcus. The class given is cell-based. As to conditions: geometric mean over Enterococcus strains.
Assay [1] relates to S. aureus ATCC 43300 MR 214. The assay is described as follows: MIC, standard microdilution method (NCCLS M7-A5). The class given is cell-based, Staphylococcus aureus. The following applies: for MIC: Staphylococcus aureus, ATCC43300, read-out: In vitro activities against bacteria, MIC.
Assay [2] relates to S. aureus ATCC 25923 MS 319. The assay is described as follows: MIC, standard microdilution method (NCCLS M7-A5). The class given is cell-based, Staphylococcus aureus. The following applies: for MIC: Staphylococcus aureus, ATCC25923, read-out: In vitro activities against bacteria, MIC. In general terms: Dilution methods test growth across graded concentrations, often in twofold steps.

In assay [3] the test system is S. pneumoniae ATCC 49619 PR 215. The assay is described as follows: MIC, standard microdilution method (NCCLS M7-A5). The following applies: for MIC: Streptococcus pneumoniae, ATCC49619, read-out: In vitro activities against bacteria, MIC. The class given is cell-based, Streptococcus pneumoniae.
For assay [4], the system named is S. epidermidis ATCC 12228 MR 11. The assay is described as follows: microbe, parasite or virus in culture. The class given is cell-based, Staphylococcus epidermidis. As to conditions: for MIC: Staphylococcus epidermidis, ATCC12228, read-out: In vitro activities against bacteria, MIC.
The target of the next assay is T1, human MAO-B (Homo sapiens, UniProt P27338).
T1 construct: purchased Gentest, BD, USA; host or cells: SF9 insect cells (membranes)
T1 sequence (P27338 1-520): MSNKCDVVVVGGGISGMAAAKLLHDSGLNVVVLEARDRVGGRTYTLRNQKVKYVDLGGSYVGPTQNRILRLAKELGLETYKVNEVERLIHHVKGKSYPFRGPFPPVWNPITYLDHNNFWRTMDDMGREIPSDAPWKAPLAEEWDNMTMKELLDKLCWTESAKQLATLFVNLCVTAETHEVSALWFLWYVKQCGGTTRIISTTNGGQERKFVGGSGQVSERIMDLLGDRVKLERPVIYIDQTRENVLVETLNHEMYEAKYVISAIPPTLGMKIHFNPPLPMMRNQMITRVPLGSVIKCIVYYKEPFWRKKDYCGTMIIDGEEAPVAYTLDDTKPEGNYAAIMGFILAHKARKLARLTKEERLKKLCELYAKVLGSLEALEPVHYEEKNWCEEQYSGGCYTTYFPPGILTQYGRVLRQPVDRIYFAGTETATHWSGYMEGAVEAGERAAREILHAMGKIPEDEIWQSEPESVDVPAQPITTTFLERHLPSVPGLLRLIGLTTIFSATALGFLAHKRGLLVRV
The assay is described as follows: In vitro MAO-B enzymatic activity (kynuramine substrate, fluorescence). The class given is biochemical. As to conditions: human MAO-B, compound at 1 μM.

The next assay deals with T2, human MAO-A (Homo sapiens, UniProt P21397).
T2 construct: purchased Gentest, BD, USA; host or cells: SF9 insect cells (membranes)
T2 sequence (P21397 1-527): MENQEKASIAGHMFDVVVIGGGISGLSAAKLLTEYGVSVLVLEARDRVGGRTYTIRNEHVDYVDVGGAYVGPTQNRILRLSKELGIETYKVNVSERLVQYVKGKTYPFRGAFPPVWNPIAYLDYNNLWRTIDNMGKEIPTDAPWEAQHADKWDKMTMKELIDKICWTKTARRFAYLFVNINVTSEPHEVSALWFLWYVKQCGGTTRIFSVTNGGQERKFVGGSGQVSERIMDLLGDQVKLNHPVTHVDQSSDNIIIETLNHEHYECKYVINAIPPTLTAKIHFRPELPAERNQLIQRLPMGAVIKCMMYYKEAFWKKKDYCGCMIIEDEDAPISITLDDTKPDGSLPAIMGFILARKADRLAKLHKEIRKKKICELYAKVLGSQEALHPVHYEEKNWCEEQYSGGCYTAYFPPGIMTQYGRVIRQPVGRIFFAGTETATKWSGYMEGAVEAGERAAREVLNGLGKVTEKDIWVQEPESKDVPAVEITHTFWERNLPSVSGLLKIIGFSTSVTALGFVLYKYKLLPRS
The assay is described as follows: In vitro MAO-A enzymatic activity (kynuramine substrate, fluorescence). The class given is biochemical. The following applies: compound at 10 μM.

Assay [5] has as its system Moxorella, Pasteurella and Bacteroides spp. The following applies: background literature; cited from earlier work.
Setting [6] is: listed as Comparartive Example 1.
The mark [7] stands for this setting: S. pneumoniae ATCC 49619 PR 215.
Setting [8] is: S. epidermidis ATCC 12228 MR 11.

For the compound `COc1ccc2cc(C(=O)NC[C@H]3CN(c4ccc(N5CCN(C(C)=O)CC5)c(F)c4)C(=O)O3)c(C)nc2c1` [Ex. 3, 7-methoxy-2-methyl-N-[[(5S)-3-[3-fluoro-4-(4′-acetyl-4-piperazinyl)-phenyl]-2-oxo-5-oxazolidinyl]methyl]-3-quinolinecarboxamide], in the assay with Staphylococcus, the MIC turned out to be 0.4 µg/mL (≈ 0.747 µM) and the “Selectivity Enterococcus/Staphylococcus” value came out at 14.3. This compound showed a Geometric Mean MIC Enterococcus with Enterococcus of 5.7 µg/mL.

For `COc1ccc2nc(C)c(C(=O)NC[C@H]3CN(c4ccc(N5CCOCC5)c(F)c4)C(=O)O3)cc2c1` [Ex. 18], in the assay on Staphylococcus, the MIC came out at 1 µg/mL (≈ 2.02 µM) and the “Selectivity Enterococcus/Staphylococcus” value is reported as 8.0. For the same compound, the Geometric Mean MIC Enterococcus with Enterococcus came to 8 µg/mL.

For the compound `COc1ccc2cc(C(=O)NC[C@H]3CN(c4ccc(N5CCOCC5)c(F)c4)C(=O)O3)c(C)nc2c1` [compound 1, reference compound], the “Geometric Mean MIC Staphylococcus” value in the assay with Staphylococcus was determined as 5.7 µg/mL. In the assay on Staphylococcus (setting [6]), the “Selectivity Enterococcus/Staphylococcus” value is reported as 0.8. In addition, the Geometric Mean MIC Enterococcus in the assay on Enterococcus (setting [6]) was 4.8 µg/mL.

Regarding `O=C(NC[C@H]1CN(c2ccc(N3CCOCC3)c(F)c2)C(=O)O1)c1cc2cc([N+](=O)[O-])ccc2o1` [Comparative Example 3, reference compound], in the assay with Staphylococcus, the “Geometric Mean MIC Staphylococcus” value is 0.8 µg/mL and the “Selectivity Enterococcus/Staphylococcus” value came to 0.9. In the assay with Enterococcus, this compound gave a Geometric Mean MIC Enterococcus of 0.7 µg/mL.

Take `COc1ccc2cc(C(=O)NC[C@H]3CN(c4ccc(N5CCN(C(=O)c6c[nH]cn6)CC5)c(F)c4)C(=O)O3)c(C)nc2c1` [Ex. 31]: the “In vitro activities against bacteria, MIC” value (from here on “In vitro activities”) came to 2.00 µg/mL in assay [1] (S. aureus ATCC 43300 MR 214), 4.00 µg/mL in assay [2] (S. aureus ATCC 25923 MS 319), 4.00 µg/mL in assay [3] (setting [7]) and 2.00 µg/mL in assay [4] (setting [8]).

As to `COc1ccc2cc(C(=O)NC[C@H]3CN(c4ccc(N5CCN(C(=O)CO)CC5)c(F)c4)C(=O)O3)c(C)nc2c1` [Ex. 35], in the assay on Staphylococcus, the “Geometric Mean MIC Staphylococcus” value is 0.6 µg/mL and the “Selectivity Enterococcus/Staphylococcus” value stood at 8.3. In the assay with Enterococcus, the “Geometric Mean MIC Enterococcus” value turned out to be 5.0.

Regarding `COc1ccc2cc(C(=O)NC[C@H]3CN(c4ccc(N5CCN(C(=O)C6CC6)CC5)c(F)c4)C(=O)O3)c(C)nc2c1` [Ex. 34], the “In vitro activities” value in assay [1] (S. aureus ATCC 43300 MR 214), in assay [2] (S. aureus ATCC 25923 MS 319), in assay [3] (setting [7]) and in [4] (setting [8]) was 0.50 µg/mL in each case. On human MAO-B, the “MAO-B % inh (1 μM)” value amounted to 8%. Besides, the “MAO-A % inh (10 μM)” value at human MAO-A is listed as 7%. Besides, the “Geometric Mean MIC Staphylococcus” value in the assay with Staphylococcus came to 0.4 µg/mL. The “Selectivity Enterococcus/Staphylococcus” value in the assay on Staphylococcus is reported as 100. The same compound yielded a Geometric Mean MIC Enterococcus with Enterococcus of 40.3 µg/mL.

For `CC(=O)NC[C@H]1CN(c2ccc(N3CCOCC3)c(F)c2)C(=O)O1` [Linezolid, N-[[(5S)-3-[3-fluoro-4-(4-morpholinyl)phenyl]-2-oxo-5-oxazolidinyl]methyl]acetamide, reference compound], the MIC in [1] (S. aureus ATCC 43300 MR 214) was 1 µg/mL (≈ 2.96 µM); in assay [2] (S. aureus ATCC 25923 MS 319) it was 2 µg/mL (≈ 5.93 µM); in assay [5], 2 to 8 µg/mL; in [3] (setting [7]) it was 2 µg/mL (≈ 5.93 µM); in assay [4], 1 µg/mL (≈ 2.96 µM). Moreover, on human MAO-B (read-out: MAO-B % inh (1 μM)), the inhibition at 1 µM worked out at 62%. Moreover, the inhibition at 10 µM on human MAO-A (read-out: MAO-A % inh (10 μM)) was 41%.

`COc1ccc2cc(C(=O)NC[C@H]3CN(c4ccc(N5CCN(C(=O)C6=NNC(=O)CC6)CC5)c(F)c4)C(=O)O3)c(C)nc2c1` [Ex. 29]: in the assay on Staphylococcus, the “Geometric Mean MIC Staphylococcus” value came out at 1.7 µg/mL and the “Selectivity Enterococcus/Staphylococcus” value is 18.8. In the assay with Enterococcus, the Geometric Mean MIC Enterococcus turned out to be 32 µg/mL.

Turning to `COc1ccc2cc(C(=O)NC[C@H]3CN(c4ccc(N5CCS(=O)(=O)CC5)c(F)c4)C(=O)O3)c(C)nc2c1` [Ex. 8, 7-methoxy-2-methyl-N-[[(5S)-3-[3-fluoro-4-(1,1-dioxothiomorpholin-4-yl)-phenyl]-2-oxo-5-oxazolidinyl]methyl]-3-quinolinecarboxamide], the MIC came out at 2 µg/mL (≈ 3.69 µM) in [1] (S. aureus ATCC 43300 MR 214), 2 µg/mL (≈ 3.69 µM) in [2] (S. aureus ATCC 25923 MS 319), 1 µg/mL (≈ 1.84 µM) in [3] (setting [7]) and 2 µg/mL (≈ 3.69 µM) in assay [4].

As for `C=CC(=O)N1CCN(c2ccc(N3C[C@H](CNC(=O)c4cc5ccc(OC)cc5nc4C)OC3=O)cc2F)CC1` [Ex. 24], in the assay on Staphylococcus, the “Geometric Mean MIC Staphylococcus” value was 0.6 µg/mL and the “Selectivity Enterococcus/Staphylococcus” value was 27.0. Also, the Geometric Mean MIC Enterococcus in the assay on Enterococcus stood at 16 µg/mL.

For the compound `COc1ccc2cc(C(=O)NC[C@H]3CN(c4ccc(N5CCN(C(=O)c6cccnc6)CC5)c(F)c4)C(=O)O3)c(C)nc2c1` [Ex. 42], the “In vitro activities” value stood at 0.06 µg/mL in assay [1], 1.00 µg/mL in assay [2], 1.00 µg/mL in assay [3] and 0.5 µg/mL in assay [4]. Further, the “MAO-B % inh (1 μM)” value at human MAO-B stood at 7%. Moreover, at human MAO-A, the “MAO-A % inh (10 μM)” value was determined as 5%.

`O=C(NC[C@H]1CN(c2ccc(N3CCOCC3)c(F)c2)C(=O)O1)c1coc2ccccc12` [Comparative Example 2, reference compound]: in the assay with Staphylococcus, the “Geometric Mean MIC Staphylococcus” value amounted to 12.7 µg/mL and the “Selectivity Enterococcus/Staphylococcus” value came to 0.3. Besides, the Geometric Mean MIC Enterococcus in the assay with Enterococcus is 3.4 µg/mL.

For `COc1ccc2cc(C(=O)NC[C@H]3CN(c4ccc(N5CCOCC5)c(F)c4)C(=O)O3)c(C)nc2c1` [Ex. 1, 7-methoxy-2-methyl-N-[[(5S)-3-[3-fluoro-4-(4-morpholinyl)phenyl]-2-oxo-5-oxazolidinyl]methyl]-3-quinolinecarboxamide], in the assay on Staphylococcus, the MIC came to 0.6 µg/mL (≈ 1.21 µM) and the “Selectivity Enterococcus/Staphylococcus” value is 9.5. The compound also displayed a Geometric Mean MIC Enterococcus in the assay with Enterococcus of 5.7 µg/mL.
